Experimental data: patent US8822517B2, “Arylosulfonamides for the treatment of CNS diseases” (Adamed SP. Z O.O., priority 2010, dated 2014)

What was measured:
adrenergic α1 receptor = experiment: Binding assay α1 (non-selective), [3H]prazosin, rat cerebral cortex; conditions: percent inhibition of control specific binding; compounds tested at 1×10^−6 M
Procedure, shortened: (§1)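 Compounds tested at a single 1×10^−6 M concentration against the listed radioligands; bound label counted by scintillation, with non-specific binding defined by excess unlabelled ligand and subtracted from total.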

dopaminergic D2 receptor = dopaminergic D2 receptor (Homo sapiens, UniProt P14416); experiment: Binding assay D2S (h), [3H]methyl-spiperone, HEK-293 cells; parameters: expressed in transfected cells; host or cells: HEK-293 cells; conditions: read-out: D2 [%]
Procedure, shortened: as §1

dopaminergic D3 receptor = dopaminergic D3 receptor (Homo sapiens, UniProt P35462); experiment: Binding assay D3 (h), [3H]methyl-spiperone, CHO cells; parameters: expressed in transfected cells; host or cells: CHO cells; conditions: read-out: D3 [%]
Procedure, shortened: as §1

[1] = biological target: serotoninergic 5-HT6 receptor (Homo sapiens, UniProt P50406); experiment: Binding assay 5-HT6 (h), [3H]LSD, CHO cells; parameters: expressed in transfected cells; host or cells: CHO cells; conditions: read-out: 5-HT6
Procedure, shortened: as §1

[2] = biological target: T1, serotonine transporter (SERT) receptor (Homo sapiens, UniProt P31645); experiment: Binding assay SERT (h), [3H]imipramine, CHO cells; conditions: read-out: SERT [%]
T1 construct: expressed in transfected cells; host or cells: CHO cells
Procedure, shortened: as §1

[3] = biological target: T2, serotoninergic 5-HT1A receptor (Homo sapiens, UniProt P08908); experiment: Binding assay 5-HT1A (h), [3H]8-OH-DPAT, HEK-293 cells; parameters: expressed in transfected cells; host or cells: HEK-293 cells; conditions: read-out: 5-HT1A
T2 sequence (P08908 1-422): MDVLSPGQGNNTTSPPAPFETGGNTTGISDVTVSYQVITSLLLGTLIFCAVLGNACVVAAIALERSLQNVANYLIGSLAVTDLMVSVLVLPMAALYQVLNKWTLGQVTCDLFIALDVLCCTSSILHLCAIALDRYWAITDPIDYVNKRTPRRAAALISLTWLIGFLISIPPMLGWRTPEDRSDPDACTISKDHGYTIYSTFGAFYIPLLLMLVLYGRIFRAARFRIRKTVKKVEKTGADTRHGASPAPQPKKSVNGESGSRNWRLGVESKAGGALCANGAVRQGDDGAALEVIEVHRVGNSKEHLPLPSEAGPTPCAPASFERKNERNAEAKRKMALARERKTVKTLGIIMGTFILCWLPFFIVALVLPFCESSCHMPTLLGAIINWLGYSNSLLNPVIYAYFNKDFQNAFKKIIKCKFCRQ
Procedure, shortened: as §1

[4] = biological target: serotoninergic 5-HT2A receptor (Homo sapiens, UniProt P28223); experiment: Binding assay 5-HT2A (h), [3H]ketanserin, HEK-293 cells; parameters: expressed in transfected cells; host or cells: HEK-293 cells; conditions: read-out: 5-HT2A
Procedure, shortened: as §1

[5] = biological target: serotoninergic 5-HT7 receptor (Homo sapiens, UniProt P34969); experiment: Binding assay 5-HT7 (h), [3H]LSD, CHO cells; parameters: expressed in transfected cells; host or cells: CHO cells; conditions: read-out: 5-HT7
Procedure, shortened: as §1

Chain of serotoninergic 5-HT2A receptor (P28223 whole entry): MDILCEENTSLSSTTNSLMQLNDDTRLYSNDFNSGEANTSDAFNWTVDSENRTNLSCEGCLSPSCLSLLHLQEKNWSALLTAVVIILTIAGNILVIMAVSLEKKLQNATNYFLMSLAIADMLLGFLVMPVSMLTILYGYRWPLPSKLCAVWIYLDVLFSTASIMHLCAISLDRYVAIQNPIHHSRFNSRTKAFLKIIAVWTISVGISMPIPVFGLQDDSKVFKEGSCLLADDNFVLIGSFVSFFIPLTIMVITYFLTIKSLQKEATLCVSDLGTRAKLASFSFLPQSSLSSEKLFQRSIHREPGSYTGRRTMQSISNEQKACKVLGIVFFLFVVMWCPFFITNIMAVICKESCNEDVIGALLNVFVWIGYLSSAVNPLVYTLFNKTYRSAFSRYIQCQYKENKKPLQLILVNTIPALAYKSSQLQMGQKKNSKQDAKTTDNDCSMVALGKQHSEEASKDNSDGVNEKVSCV
Chain of dopaminergic D3 receptor (P35462 whole entry): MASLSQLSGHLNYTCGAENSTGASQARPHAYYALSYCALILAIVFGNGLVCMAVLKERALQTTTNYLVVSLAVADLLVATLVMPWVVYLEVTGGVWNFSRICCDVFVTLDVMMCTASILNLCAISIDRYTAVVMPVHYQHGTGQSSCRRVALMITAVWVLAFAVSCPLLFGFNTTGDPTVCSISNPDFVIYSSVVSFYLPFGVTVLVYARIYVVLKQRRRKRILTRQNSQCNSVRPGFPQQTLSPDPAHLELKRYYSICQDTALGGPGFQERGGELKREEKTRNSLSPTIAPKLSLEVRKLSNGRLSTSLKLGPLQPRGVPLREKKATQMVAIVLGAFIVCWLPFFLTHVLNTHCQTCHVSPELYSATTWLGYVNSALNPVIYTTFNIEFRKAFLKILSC
T1 sequence (P31645 whole entry): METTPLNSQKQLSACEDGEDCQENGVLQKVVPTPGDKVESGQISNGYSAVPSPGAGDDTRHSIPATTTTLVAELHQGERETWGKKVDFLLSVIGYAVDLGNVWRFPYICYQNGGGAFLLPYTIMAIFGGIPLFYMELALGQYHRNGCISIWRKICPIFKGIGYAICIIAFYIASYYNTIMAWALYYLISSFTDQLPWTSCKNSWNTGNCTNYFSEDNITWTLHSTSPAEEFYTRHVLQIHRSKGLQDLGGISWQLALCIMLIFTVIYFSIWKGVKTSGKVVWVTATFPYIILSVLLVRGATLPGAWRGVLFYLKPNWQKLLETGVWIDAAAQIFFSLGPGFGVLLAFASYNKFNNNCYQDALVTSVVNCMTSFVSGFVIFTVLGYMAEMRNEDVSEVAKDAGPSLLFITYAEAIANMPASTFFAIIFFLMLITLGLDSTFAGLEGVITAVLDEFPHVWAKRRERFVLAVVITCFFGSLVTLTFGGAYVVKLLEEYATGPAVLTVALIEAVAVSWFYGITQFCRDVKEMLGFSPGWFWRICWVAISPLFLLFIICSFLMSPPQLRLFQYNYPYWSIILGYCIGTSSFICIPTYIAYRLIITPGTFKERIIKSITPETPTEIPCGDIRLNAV
Chain of dopaminergic D2 receptor (P14416 1-414 isoform P14416-2): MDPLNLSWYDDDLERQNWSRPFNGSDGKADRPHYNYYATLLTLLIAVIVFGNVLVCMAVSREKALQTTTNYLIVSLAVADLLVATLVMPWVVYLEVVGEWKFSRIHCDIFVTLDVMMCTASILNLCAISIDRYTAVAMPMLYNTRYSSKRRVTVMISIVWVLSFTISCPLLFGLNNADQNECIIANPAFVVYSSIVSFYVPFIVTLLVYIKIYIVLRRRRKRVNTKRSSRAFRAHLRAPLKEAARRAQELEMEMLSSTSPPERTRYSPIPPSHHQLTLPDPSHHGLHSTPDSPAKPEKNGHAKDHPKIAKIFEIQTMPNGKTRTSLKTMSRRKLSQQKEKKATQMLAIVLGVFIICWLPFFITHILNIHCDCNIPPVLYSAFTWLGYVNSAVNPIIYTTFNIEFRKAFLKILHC
Chain of serotoninergic 5-HT6 receptor (P50406 whole entry): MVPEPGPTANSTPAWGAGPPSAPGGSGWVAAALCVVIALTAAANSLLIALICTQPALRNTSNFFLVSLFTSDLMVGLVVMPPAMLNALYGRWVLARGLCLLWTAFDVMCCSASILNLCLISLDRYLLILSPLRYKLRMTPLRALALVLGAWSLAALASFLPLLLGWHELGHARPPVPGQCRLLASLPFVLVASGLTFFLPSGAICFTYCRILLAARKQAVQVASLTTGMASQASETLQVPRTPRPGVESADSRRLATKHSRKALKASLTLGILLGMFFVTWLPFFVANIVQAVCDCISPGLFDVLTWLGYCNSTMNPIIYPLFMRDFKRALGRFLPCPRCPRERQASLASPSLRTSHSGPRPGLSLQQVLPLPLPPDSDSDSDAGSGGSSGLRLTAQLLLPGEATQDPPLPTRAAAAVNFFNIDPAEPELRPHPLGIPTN
Chain of serotoninergic 5-HT7 receptor (P34969 whole entry): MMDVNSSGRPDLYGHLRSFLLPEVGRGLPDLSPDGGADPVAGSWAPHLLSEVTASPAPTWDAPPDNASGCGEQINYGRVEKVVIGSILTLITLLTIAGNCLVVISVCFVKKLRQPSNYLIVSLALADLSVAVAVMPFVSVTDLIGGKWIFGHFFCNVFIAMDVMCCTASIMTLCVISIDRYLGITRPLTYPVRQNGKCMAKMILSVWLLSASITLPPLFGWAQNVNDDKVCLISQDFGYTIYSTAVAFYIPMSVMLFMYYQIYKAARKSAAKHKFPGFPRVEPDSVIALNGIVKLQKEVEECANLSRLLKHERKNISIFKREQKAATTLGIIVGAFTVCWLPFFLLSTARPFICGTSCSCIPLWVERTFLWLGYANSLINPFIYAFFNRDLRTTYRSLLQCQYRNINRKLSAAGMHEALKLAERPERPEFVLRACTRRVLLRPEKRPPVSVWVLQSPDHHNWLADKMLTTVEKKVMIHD

Row | SMILES | α1 [%] (adrenergic α1 receptor) | inhibition at 1 µM (dopaminergic D2 receptor) | inhibition at 1 µM (dopaminergic D3 receptor) | inhibition at 1 µM [1] | inhibition at 1 µM [2] | inhibition at 1 µM [3] | inhibition at 1 µM [4] | inhibition at 1 µM [5]
1 | Cn1ccc2c(S(=O)(=O)NCCCN3CCC(c4noc5cc(F)ccc45)CC3)cccc21 [Compound 343, N-[3-[4-(6-Fluoro-1,2-benzoxazol-3-yl)piperidin-1-yl]propyl]-1-methyl-indole-4-sulphonamide] | 86% | 101% | 96% | 77% | 4% | 32% | 105% | 92%
2 | O=S(=O)(NCCCN1CCC(c2noc3cc(F)ccc23)CC1)c1ccc(Cl)c(Cl)c1 [Compound 329, 3,4-Dichloro-N-[3-[4-(6-fluoro-1,2-benzoxazol-3-yl)piperidin-1-yl]propyl]benzenesulphonamide] | 102% | 109% | 99% | 97% | -2% | 69% | 91% | 95%
3 | Cc1[nH]c2ccc(Cl)cc2c1C1=CCN(CCNS(=O)(=O)c2cccc3ccccc23)CC1 [Compound 447, N-[2-[4-(5-Chloro-2-methyl-1H-indol-3-yl)-3,6-dihydro-2H-pyridin-1-yl]ethyl]-naphthalene-1-sulphonamide] | 1% | 3% | -17% | 106% | 23% | 42% | 19% | 34%
4 | O=S(=O)(NCCCCN1CCN(c2noc3ccccc23)CC1)c1ccc(F)c(Cl)c1 [Compound 276, N-[4-[4-(1,2-Benzoxazol-3-yl)piperazin-1-yl]butyl]-3-chloro-4-fluorobenzenesulphonamide] | 95% | 95% | 69% | 78% | 3% | 51% | 87% | 87%
5 | O=S(=O)(NCCCN1CCN(c2nsc3ccccc23)CC1)c1ccc2cc(Cl)ccc2c1 [Compound 62, N-[3-[4-(1,2-Benzothiazol-3-yl)piperazin-1-yl]propyl]-6-chloro-naphthalene-2-sulphonamide] | 61% | 92% | 63% | 69% | 15% | 46% | 101% | 78%
6 | Cc1[nH]c2ccc(Cl)cc2c1C1=CCN(CCNS(=O)(=O)c2ccc(F)cc2)CC1 [Compound 449, N-[2-[4-(5-Chloro-2-methyl-1H-indol-3-yl)-3,6-dihydro-2H-pyridin-1-yl]ethyl]-4-fluorobenzenesulphonamide] | 12% | 31% | 34% | 93% | 21% | 57% | 76% | 81%
7 | CC(C)(C)c1ccc(S(=O)(=O)NCCCCN2CCN(c3nsc4ccccc34)CC2)cc1 [Compound 233, N-[4-[4-(1,2-Benzothiazol-3-yl)piperazin-1-yl]butyl]-4-tert-butyl-benzenesulphonamide] | 94% | 83% | 76% | 76% | 5% | 53% | 100% | 93%
8 | O=S(=O)(NCCCCN1CCN(c2nsc3ccccc23)CC1)c1ccc2cn[nH]c2c1 [Compound 244, N-[4-[4-(1,2-Benzothiazol-3-yl)piperazin-1-yl]butyl]-1H-indazole-6-sulphonamide] | 98% | 105% | 91% | 81% | 19% | 69% | 96% | 98%
9 | O=c1[nH]c2ccc(S(=O)(=O)NCCCCN3CCN(c4cccc5c4OCCO5)CC3)cc2o1 [Compound 403, N-[4-[4-(2,3-Dihydro-1,4-benzodioxin-5-yl)piperazin-1-yl]butyl]-2-oxo-3H-1,3-benzoxazole-6-sulphonamide] | 98% | 85% | 99% | -21% | -9% | 98% | 64% | 95%
10 | O=S(=O)(NCCCCN1CCN(c2cccc3c2OCCO3)CC1)c1ccc2c(c1)OCO2 [Compound 404, N-[4-[4-(2,3-Dihydro-1,4-benzodioxin-5-yl)piperazin-1-yl]butyl]-1,3-benzodioxole-5-sulphonamide] | 93% | 60% | 92% | 4% | -9% | 97% | 55% | 96%
11 | O=C1COc2c(cccc2N2CCN(CCCCNS(=O)(=O)c3ccc(F)cc3)CC2)N1 [Compound 428, 4-Fluoro-N-[4-[4-(3-oxo-4H-1,4-benzoxazin-8-yl)piperazin-1-yl]butyl]benzenesulphonamide] | 72% | 78% | 104% | 33% | 23% | 90% | 30% | 78%
12 | O=S(=O)(NCCCCN1CCN(c2cccc3c2OCCO3)CC1)c1csc2ccccc12 [Compound 400, N-[4-[4-(2,3-Dihydro-1,4-benzodioxin-5-yl)piperazin-1-yl]butyl]benzothiophene-3-sulphonamide] | 94% | 83% | 88% | 9% | 30% | 100% | 66% | 95%
13 | O=S(=O)(NCCCCN1CCC(c2noc3cc(F)ccc23)CC1)c1ccc(OC(F)(F)F)cc1 [Compound 304, N-[4-[4-(6-Fluoro-1,2-benzoxazol-3-yl)piperidin-1-yl]butyl]-4-(trifluoromethoxy)-benzenesulphonamide] | 101% | 94% | 87% | 78% | 4% | 60% | 76% | 93%
14 | O=c1[nH]c2ccc(S(=O)(=O)NCCCN3CCC(c4noc5cc(F)ccc45)CC3)cc2o1 [Compound 353, N-[3-[4-(6-Fluoro-1,2-benzoxazol-3-yl)piperidin-1-yl]propyl]-2-oxo-3H-1,3-benzoxazole-6-sulphonamide] | 103% | 91% | 97% | 58% | -1% | 48% | 101% | 83%
